Tests used:
murine MM cells = assay: In vitro viability assay, murine MM-derived cell lines; format: cell-based, mouse; details: 48 hours, Deep Blue Cell Viability Kit
Method: (§1) Mice were monitored twice weekly for signs of disease and were then sacrificed. […] The samples that were able to grow for weeks ex vivo were tested for the presence of the original transgenic lesions and then characterized. Eight MM-derived cells lines established from mice carrying different lesions. In vitro therapy assays. For viability assays, murine or human MM cells were seeded in 96-well black culture plates and treated with different drugs alone or in combination for 48 hours. Cell viability was quantified using a Deep Blue Cell Viability™ Kit (Biolegend) and analyzed with a Skanit Varioskan Flash 2.4.3 (Thermo Scientific) fluorometer. Treatments were administered to cells at a density of 0.3×10^6 cells/ml, and all tests were performed in triplicate. After treatment, cells were subjected to qRT-PCR or Western blot analyses, as indicated, according to previously reported methods.

human MM cells = assay: In vitro viability assay, human MM cell lines; format: cell-based; details: 48 hours, Deep Blue Cell Viability Kit
Method: (§2) Ten cell lines derived from MM patients (RPMI8226, KMS12, KMS26, KMS11, MM1S, U266, K620, JJN3, H929, and MOLP2) were included in this study. All have been validated according to the AmpFLSTR® Identifiler®, were tested for Mycoplasma sp.
as §1

MYC [1] = assay: MYC expression and phosphorylation after treatment (Western blot, qRT-PCR), mouse MM cell lines; format: cell-based
Method: (§3) A total of 1 μg of total RNA from GFP^+-sorted cells was isolated with a NucleoSpin RNA kit (Macherey-Nagel) and reverse transcribed into cDNA using MMLV enzyme technology (Invitrogen). PCR was performed on an ABI Viia7 instrument using SYBR green fluorophore and primers designed to amplify specific mouse or human genes. Specific primers are listed in the Key Resources Table.
as §1

MYC [2] = target: T1, MYC (Homo sapiens, UniProt P01106); assay: MYC expression and phosphorylation after treatment (Western blot, qRT-PCR), human MM cell lines; format: cell-based
T1 construct: Western blot analysis of MYC protein expression in human MM cell lines; endogenous in cells; host or cells: human MM cell lines (of RPMI8226, KMS12, KMS26, KMS11, MM1S, U266, K620, JJN3, H929, MOLP2)
Method: as §3, §2
as §1, with “After treatment, cells were subjected to qRT-PCR or Western blot analyses, as indicated, according to previously reported methods.” left out

T1 sequence (P01106 whole entry): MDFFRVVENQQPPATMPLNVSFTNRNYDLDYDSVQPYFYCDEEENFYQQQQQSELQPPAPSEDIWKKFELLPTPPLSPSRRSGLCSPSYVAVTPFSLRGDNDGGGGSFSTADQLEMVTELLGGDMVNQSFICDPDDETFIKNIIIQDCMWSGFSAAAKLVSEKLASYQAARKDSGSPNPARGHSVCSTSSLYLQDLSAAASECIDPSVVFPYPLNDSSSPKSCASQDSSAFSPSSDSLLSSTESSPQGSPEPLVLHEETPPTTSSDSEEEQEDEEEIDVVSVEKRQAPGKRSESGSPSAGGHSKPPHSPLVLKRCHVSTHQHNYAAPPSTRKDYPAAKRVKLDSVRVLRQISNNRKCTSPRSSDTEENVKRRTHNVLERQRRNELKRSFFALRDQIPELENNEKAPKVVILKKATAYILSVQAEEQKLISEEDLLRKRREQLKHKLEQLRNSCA

MYC protein expression (MYC [2]): dose-dependent MYC protein reduction
Substance: MYCi975
MM cell viability (murine MM cells): decreased viability | MM cell viability (human MM cells): decreased viability | MYC protein expression (MYC [1]): dose-dependent MYC protein reduction
